Here are results for one molecule from US20100167396A1, “Application of Anti-Apoptotic Gene Expression in Mammalian Cells for Perfusion Culture” (BAYER HEALTHCARE LLC, priority 2006, published 2010).

Experiment [1] has as its system blank vector and parental BHK-FVIII cell lines. Kind of experiment: Thapsigargin-induced caspase-3 activation, control cell lines. It is filed as cell-based, hamster. As to conditions: 24 hours after 2 μM thapsigargin treatment. The method, then:
(§1) Cells were seeded at a density of 5×10^6 cells/mL in shake flasks and cultured in an incubator maintained at 37° C. and 5% CO2. The culture was examined every 24 hours for viability, caspase-3 activation, Annexin-V binding assay, and nutrient measurements. Cell count was performed by trypan blue exclusion assay using a Cedex cell counting device (Innovatis, Bielefeld, Germany). Caspase-3 activation was detected using a Guava PCA system (Guava Technologies, Hayward, Calif.). Cells were washed with cold PBS, fixed with Cytofix/Cytoperm solution (BD Pharmingen, San Diego, Calif.), and then stained with PE-conjugated monoclonal active caspase-3 antibody (BD Pharmingen) before analyzing with the Guava system. For the Annexin-V binding assay, cells were collected and incubated using a Guava Nexin kit and analyzed on the Guava PCA system according to manufacturer's instructions (Guava Technologies). Levels of glutamine, glutamate, glucose, and lactate were measured by the YSI analyzer (YSI Life Sciences, Yellow Springs, Ohio).
(§2) The engineered cell lines Aven-E1B-19K #22 and E1B-19K #6, in addition to the blank vector and the parental cell lines were treated with thapsigargin in shake flask culture. […] To examine apoptosis induction, caspase-3 activation was evaluated 24 hours after thapsigargin treatment.

Experiment [2] relates to E1B-19K #6 and Aven-E1B-19K #22 BHK-FVIII cell lines. The experiment can be described thus: Thapsigargin-induced caspase-3 activation, engineered cell lines. It is filed as cell-based, hamster. As to conditions: 24 hours after 2 μM thapsigargin treatment, anti-apoptosis engineered cell lines. The procedure:
as §1, §2

For `C/C=C(/C)C(=O)O[C@H]1C(C)=C2[C@H]([C@@H]1OC(=O)CCCCCCC)[C@@](C)(OC(C)=O)C[C@H](OC(=O)CCC)[C@@]1(O)[C@H]2OC(=O)[C@@]1(C)O` [thapsigargin], the “percentage of caspase-3 activated cells” value in experiment [1] is “Approximately 20%”; in experiment [2] it was “less than 5%”.
